# Assay results from PMC5803421 (International journal of pharmaceutics, 2017).
# System: anesthetized acute SCI female rats (bladder pressure)
# Test: Isovolumetric cystometry in anesthetized acute spinal cord injured rats
# Type: in vivo, rat
# Conditions: antagonist 1 mg/kg i.v. after ODT LMN-NKA (4.6 mg/kg)
smiles,measurement,value
COC1(C[S@@+]([O-])c2ccccc2)CCN(CCc2c[nH]c3ccc(F)cc23)CC1 [GR 159898],effect on LMN-NKA ODT mediated increase in bladder pressure,readily reversed
